Patent US20250101013A1, “FUNCTIONALIZED AMINOTHIAZOLES” (LEADXPRO AG, priority 2022, published 2025)

Tests used:
Settings in all cases: *Measured by radioligand binding
human A1 receptor = human A1 receptor (Homo sapiens (Human), UniProt P30542); test: Radioligand binding assay, A1 ([3H]-DPCPX, CHO-K1 membranes)
Protocol: (§1) A filtration binding assay was performed for adenosine receptors A1, A2A, A2B and A3. Radioligand binding competition assay was done in duplicate in the wells of a 96-well plate (Master Block, Greiner, 786201) containing binding buffer, receptor membrane extracts, a fixed concentration of tracer, and test compound at increasing concentrations. In order to eliminate effect of buffer components, binding buffer was the same for all four receptors and contained: 50 mM Tris-HCl pH 7.4, 5 mM MgCl, 1 mM EDTA, 150 mM NaCl, 0.1% Na-azide, and 5 U/ml adenosine-deaminase. Nonspecific binding was minimized by co-incubation with 200-fold excess of cold competitor. In all radioligand binding experiments, the samples were incubated in a final volume of 0.1 ml of binding buffer for 60 minutes at 25° C. and then filtered over Unifilter plates (Perkin Elmer) pre-treated for 2 hours to limit tracer non-specific binding. Filters were washed five times with 0.5 ml of ice-cold washing buffer (50 mM Tris-HCl pH 7.4, 5 mM MgCl, 1 mM EDTA), and 50 μL of Microscint 20 (Perkin Elmer) were added to each filter. The plates were incubated 15 min at room temperature on an orbital shaker and then counted with a TopCount™ for 1 min/well.
For A1 receptor, the assay was performed with [3H]-DPCPX and membranes from CHO-Kl cells transfected with human A1 receptor (Euroscreen FAST-001B).

human A2B receptor = human A2B receptor (Homo sapiens (Human), UniProt P29275); test: Radioligand binding assay, A2B ([3H]-DPCPX, HEK293 membranes)
Sequence of human A2B receptor (P29275 whole entry): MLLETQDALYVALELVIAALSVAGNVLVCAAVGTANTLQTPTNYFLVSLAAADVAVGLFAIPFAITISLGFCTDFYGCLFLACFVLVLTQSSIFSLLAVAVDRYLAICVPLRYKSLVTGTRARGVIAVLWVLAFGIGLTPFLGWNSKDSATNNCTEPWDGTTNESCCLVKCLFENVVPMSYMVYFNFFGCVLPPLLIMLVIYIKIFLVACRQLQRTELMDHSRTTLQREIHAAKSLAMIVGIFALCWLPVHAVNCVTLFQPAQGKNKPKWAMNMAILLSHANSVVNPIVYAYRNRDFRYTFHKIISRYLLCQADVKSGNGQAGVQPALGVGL
Protocol: as §1
For A2B receptor, the assay was carried with [3H]-DPCPX and membranes prepared from HEK293 cells transfected with human A2B receptor (Euroscreen FAST-003B).

human A3 receptor = human A3 receptor (Homo sapiens (Human), UniProt P0DMS8); test: Radioligand binding assay, A3 ([125I]-MECA, CHO-K1 membranes)
Sequence of human A3 receptor (P0DMS8 whole entry): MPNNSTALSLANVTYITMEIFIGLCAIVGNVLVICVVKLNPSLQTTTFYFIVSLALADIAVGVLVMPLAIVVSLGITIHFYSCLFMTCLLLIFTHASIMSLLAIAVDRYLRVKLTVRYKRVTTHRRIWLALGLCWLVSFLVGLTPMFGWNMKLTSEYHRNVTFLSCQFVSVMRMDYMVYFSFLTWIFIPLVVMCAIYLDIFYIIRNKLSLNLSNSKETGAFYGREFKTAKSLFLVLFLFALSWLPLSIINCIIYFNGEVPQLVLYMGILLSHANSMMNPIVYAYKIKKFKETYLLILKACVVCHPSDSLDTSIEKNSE
Protocol: as §1
For A3 receptor, the assay was carried out with [125IJ-MECA and membranes from CHO-Kl cells transfected with human A3 receptor (Euroscreen FAST-004B).

human A2A receptor = human A2A receptor (Homo sapiens (Human), UniProt P29274); test: Radioligand binding assay, A2A ([3H]-NECA, HEK293 membranes)
Sequence of human A2A receptor (P29274 whole entry): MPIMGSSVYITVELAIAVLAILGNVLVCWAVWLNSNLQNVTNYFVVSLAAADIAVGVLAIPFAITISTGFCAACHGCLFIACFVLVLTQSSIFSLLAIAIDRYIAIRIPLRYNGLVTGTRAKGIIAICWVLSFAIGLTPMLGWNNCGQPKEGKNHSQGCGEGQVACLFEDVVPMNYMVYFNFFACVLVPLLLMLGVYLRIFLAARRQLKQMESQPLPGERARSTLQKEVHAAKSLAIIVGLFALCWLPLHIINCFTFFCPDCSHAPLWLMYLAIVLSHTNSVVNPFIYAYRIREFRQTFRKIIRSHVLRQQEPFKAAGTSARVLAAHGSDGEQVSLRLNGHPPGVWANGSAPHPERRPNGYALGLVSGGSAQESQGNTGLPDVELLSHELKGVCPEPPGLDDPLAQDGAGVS
Protocol: as §1
For A2A receptor, the assay was performed with [3H-NECA and membranes from HEK293 cells transfected with human A2A receptor (Euroscreen FAST-002B).

Sequence of human A1 receptor (P30542 whole entry): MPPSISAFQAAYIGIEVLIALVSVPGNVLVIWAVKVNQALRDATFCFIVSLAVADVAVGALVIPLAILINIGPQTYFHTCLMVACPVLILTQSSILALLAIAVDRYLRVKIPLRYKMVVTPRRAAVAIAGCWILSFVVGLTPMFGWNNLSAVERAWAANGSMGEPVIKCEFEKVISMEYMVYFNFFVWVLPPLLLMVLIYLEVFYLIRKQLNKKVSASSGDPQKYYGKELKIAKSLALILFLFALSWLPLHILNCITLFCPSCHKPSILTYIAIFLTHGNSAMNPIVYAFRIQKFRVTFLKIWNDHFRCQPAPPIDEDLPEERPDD

EC50 (human A1 receptor): < 5 nM | EC50 (human A2B receptor): 2.2 nM | EC50 (human A3 receptor): > 10000 nM | EC50 (human A2A receptor): > 10000 nM
Compound: Fc1ccccc1-c1nc(Nc2n[nH]c(C3CCC3)n2)sc1-c1ccncc1F [Compound 1, 5-Cyclobutyl-N-[4-(2-fluorophenyl)-5-(3-fluoropyridin-4-yl)-1,3-thiazol-2-yl]-1H-1,2,4-triazol-3-amine]
